From the supplement of paper PMC10307832

Assays:
Test in all cases: relative viability (nuclei count vs DMSO), 5 days (fraction); higher = more cells survive
IU1-47 + Luminespib = compound: CC1=CC(=C(N1C2=CC=C(C=C2)Cl)C)C(=O)CN3CCCCC3 [IU1-47] + CCNC(=O)c1noc(-c2cc(C(C)C)c(O)cc2O)c1-c1ccc(CN2CCOCC2)cc1 [Luminespib] (partner 0.01 µM)
In short: (§1)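 Relative viability equals treated-well nuclei counts divided by vehicle-well nuclei counts. Counts came from 4× images of lung cancer cell lines grown in 1536-well plates for 5 days after pin-tool dosing on the day after seeding. Dosing used one drug alone or a fixed anchor-drug dose plus five library-drug doses (not always all listed) in √10 steps, and values are medians of duplicate plates.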

FG-4592 + Decitabine = compound: Cc1nc(C(=O)NCC(=O)O)c(O)c2ccc(Oc3ccccc3)cc12 [FG-4592] + Nc1ncn([C@H]2C[C@H](O)[C@@H](CO)O2)c(=O)n1 [Decitabine] (partner 2 µM)
In short: as §1

FG-4592 + Trametinib = compound: Cc1nc(C(=O)NCC(=O)O)c(O)c2ccc(Oc3ccccc3)cc12 [FG-4592] + CC(=O)Nc1cccc(-n2c(=O)n(C3CC3)c(=O)c3c(Nc4ccc(I)cc4F)n(C)c(=O)c(C)c32)c1 [Trametinib] (partner 0.02 µM)
In short: as §1

FG-4592 + Linsitinib = compound: Cc1nc(C(=O)NCC(=O)O)c(O)c2ccc(Oc3ccccc3)cc12 [FG-4592] + C[C@]1(O)C[C@@H](c2nc(-c3ccc4ccc(-c5ccccc5)nc4c3)c3c(N)nccn32)C1 [Linsitinib] (partner 1 µM)
In short: as §1

Cell Line | relative viability (IU1-47 + Luminespib; first compound 0.08 µM) | relative viability (IU1-47 + Luminespib; first compound 0.253 µM) | relative viability (IU1-47 + Luminespib; first compound 0.8 µM) | relative viability (IU1-47 + Luminespib; first compound 2.53 µM) | relative viability (IU1-47 + Luminespib; first compound 8 µM) | relative viability (FG-4592 + Decitabine; first compound 0.08 µM) | relative viability (FG-4592 + Decitabine; first compound 0.253 µM) | relative viability (FG-4592 + Decitabine; first compound 0.8 µM) | relative viability (FG-4592 + Decitabine; first compound 2.53 µM) | relative viability (FG-4592 + Decitabine; first compound 8 µM) | relative viability (FG-4592 + Trametinib; first compound 0.08 µM) | relative viability (FG-4592 + Trametinib; first compound 0.253 µM) | relative viability (FG-4592 + Trametinib; first compound 0.8 µM) | relative viability (FG-4592 + Trametinib; first compound 2.53 µM) | relative viability (FG-4592 + Trametinib; first compound 8 µM) | relative viability (FG-4592 + Linsitinib; first compound 0.08 µM) | relative viability (FG-4592 + Linsitinib; first compound 0.253 µM) | relative viability (FG-4592 + Linsitinib; first compound 0.8 µM) | relative viability (FG-4592 + Linsitinib; first compound 2.53 µM) | relative viability (FG-4592 + Linsitinib; first compound 8 µM)
HCC-827 | 0.819 | 0.588 | 0.818 | 0.573 | 0.648 | 0.376 | 0.28 | 0.319 | 0.334 | 0.328 | 0.495 | 0.491 | 0.48 | 0.532 | 0.506 | 1.02 | 0.895 | 0.984 | 0.975 | 0.945
HOP-62 | 0.957 | 0.964 | 1.04 | 0.925 | 1.06 | 0.216 | 0.219 | 0.223 | 0.199 | 0.185 | 0.399 | 0.354 | 0.353 | 0.392 | 0.334 | 0.947 | 1.03 | 0.921 | 1.03 | 0.931
IA-LM |  |  |  |  |  |  |  |  |  |  |  |  |  |  |  | 0.578 | 0.597 | 0.565 | 0.376 | 0.476
LC-2-ad | 1.23 | 1.04 | 0.883 | 0.766 | 1.15 | 0.804 | 0.66 | 0.755 | 0.853 | 0.837 | 0.896 | 0.675 | 0.953 | 0.842 | 0.967 | 0.81 | 0.757 | 0.878 | 0.816 | 0.911
LCLC-97TM1 | 0.846 | 0.757 | 0.834 | 0.716 | 0.787 | 0.218 | 0.209 |  | 0.217 | 0.173 | 0.211 | 0.241 |  | 0.225 | 0.148 | 0.179 | 0.191 | 0.17 |  | 0.183
LCLC-103H | 1.11 | 0.982 | 1.03 | 0.818 | 0.989 | 0.773 | 0.747 | 0.664 | 0.741 | 0.66 | 0.713 | 0.582 | 0.684 | 0.684 | 0.69 | 0.969 | 1.1 | 0.89 | 1.1 | 0.854
LK-2 | 0.235 | 0.165 | 0.175 | 0.213 | 0.17 | 0.273 | 0.272 | 0.274 | 0.371 | 0.295 | 0.599 | 0.661 | 0.628 | 0.621 | 0.516 | 0.434 | 0.615 | 0.383 | 0.662 | 0.424
LOU-NH91 | 0.326 | 0.299 | 0.294 | 0.276 | 0.336 | 0.861 | 0.802 | 0.814 | 0.802 | 0.812 | 0.807 | 0.766 | 0.724 | 0.773 | 0.748 | 0.92 | 0.83 | 0.755 | 0.938 | 0.907
LU99A | 0.32 | 0.182 | 0.273 | 0.302 | 0.259 | 0.842 | 0.796 |  | 0.906 | 0.795 | 0.548 | 0.467 |  | 0.503 | 0.523 | 0.488 | 0.565 | 0.46 | 0.483 | 0.548
